This note sets out measurements from ChEMBL document CHEMBL3045245, “Synthesis and antitumor activities of certain novel 2-amino-9-(4-halostyryl)-4H-pyrano[3,2-h]quinoline derivatives” (Med Chem Res, 2012).

A word on the IC50: it is the midpoint of a concentration-inhibition curve. The low end stands for greater potency, the high end for weaker potency.

Test [1] concerns HepG2. Briefly: Cytotoxicity against Homo sapiens (human) HepG2 cells after 48 hr by MTT assay. In kind it is functional, cell-based. Conditions: HepG2, 48 h. A general note: Tetrazolium assays rely on reduction of a dye to a coloured formazan, in cell work by metabolically active cells.
Test [2] has as its system HepG2. In words: Cytotoxicity against Homo sapiens (human) HepG2 cells assessed as cell viability at 1.56 ug/ml after 48 hr by MTT assay. In kind it is functional. The note with it: HepG2, 48 h, read-out: Activity.
The subject of test [3] is HepG2. Briefly: Cytotoxicity against Homo sapiens (human) HepG2 cells assessed as cell viability at 6.25 ug/ml after 48 hr by MTT assay. It counts as functional. Conditions: HepG2, 48 h, read-out: Activity.
In test [4] the test system is HepG2. Briefly: Cytotoxicity against Homo sapiens (human) HepG2 cells assessed as cell viability at 3.125 ug/ml after 48 hr by MTT assay. It counts as functional. The note with it: HepG2, 48 h, read-out: Activity.
Test [5] deals with HepG2. In words: Cytotoxicity against Homo sapiens (human) HepG2 cells assessed as cell viability at 25 ug/ml after 48 hr by MTT assay. It counts as functional. Conditions: HepG2, 48 h, read-out: Activity.
In test [6] the test system is HepG2. In words: Cytotoxicity against Homo sapiens (human) HepG2 cells assessed as cell viability at 12.5 ug/ml after 48 hr by MTT assay. It counts as functional. Conditions: HepG2, 48 h, read-out: Activity.
A short description of test [7]: Cytotoxicity against Homo sapiens (human) HCT cells after 48 hr by MTT assay. It counts as functional, cell-based.
Test [8] relates to HepG2. Briefly: Cytotoxicity against Homo sapiens (human) HepG2 cells assessed as cell viability at 50 ug/ml after 48 hr by MTT assay. In kind it is functional. The note with it: HepG2, 48 h, read-out: Activity.
The nature of test [9]: Cytotoxicity against Homo sapiens (human) HCT cells assessed as cell viability at 1.56 ug/ml after 48 hr by MTT assay. In kind it is functional. The note with it: read-out: Activity.
Test [10] is described as follows: Cytotoxicity against Homo sapiens (human) HCT cells assessed as cell viability at 3.125 ug/ml after 48 hr by MTT assay. It counts as functional. Conditions: read-out: Activity.
Test [11] can be described thus: Cytotoxicity against Homo sapiens (human) HCT cells assessed as cell viability at 6.25 ug/ml after 48 hr by MTT assay. It counts as functional. Conditions: read-out: Activity.
A short description of test [12]: Cytotoxicity against Homo sapiens (human) HCT cells assessed as cell viability at 12.5 ug/ml after 48 hr by MTT assay. In kind it is functional. Conditions: read-out: Activity.
Test [13] is described as follows: Cytotoxicity against Homo sapiens (human) HCT cells assessed as cell viability at 25 ug/ml after 48 hr by MTT assay. In kind it is functional. Conditions: read-out: Activity.
A short description of test [14]: Cytotoxicity against Homo sapiens (human) HCT cells assessed as cell viability at 50 ug/ml after 48 hr by MTT assay. In kind it is functional. The note with it: read-out: Activity.
Test [15] deals with MCF7. In words: Cytotoxicity against Homo sapiens (human) MCF7 cells after 48 hr by MTT assay. In kind it is functional, cell-based. The note with it: MCF7, 48 h.
Test [16] deals with MCF7. Briefly: Cytotoxicity against Homo sapiens (human) MCF7 cells assessed as cell viability at 1.56 ug/ml after 48 hr by MTT assay. It counts as functional. Conditions: MCF7, 48 h, read-out: Activity.
Test [17] deals with MCF7. Briefly: Cytotoxicity against Homo sapiens (human) MCF7 cells assessed as cell viability at 3.125 ug/ml after 48 hr by MTT assay. In kind it is functional. Conditions: MCF7, 48 h, read-out: Activity.
Test [18] deals with MCF7. In words: Cytotoxicity against Homo sapiens (human) MCF7 cells assessed as cell viability at 6.25 ug/ml after 48 hr by MTT assay. In kind it is functional. Conditions: MCF7, 48 h, read-out: Activity.
The test system of test [19] is MCF7. In words: Cytotoxicity against Homo sapiens (human) MCF7 cells assessed as cell viability at 12.5 ug/ml after 48 hr by MTT assay. It counts as functional. The note with it: MCF7, 48 h, read-out: Activity.
In test [20] the test system is MCF7. In words: Cytotoxicity against Homo sapiens (human) MCF7 cells assessed as cell viability at 25 ug/ml after 48 hr by MTT assay. It counts as functional. The note with it: MCF7, 48 h, read-out: Activity.
For test [21], the system named is MCF7. In words: Cytotoxicity against Homo sapiens (human) MCF7 cells assessed as cell viability at 50 ug/ml after 48 hr by MTT assay. Conditions: MCF7, 48 h, read-out: Activity. In kind it is functional.

Structures are written as SMILES. In brackets after ≈: the same amount, converted by molar mass.

`CC[C@]1(O)C[C@@H]2CN(CCc3c([nH]c4ccccc34)[C@@](C(=O)OC)(c3cc4c(cc3OC)N(C)[C@H]3[C@@](O)(C(=O)OC)[C@H](OC(C)=O)[C@]5(CC)C=CCN6CC[C@]43[C@@H]65)C2)C1` [VINBLASTINE]: the figures for the IC50 (in the test with HepG2 [1]; in test [7]; in the test with MCF7 [15]) were 4.6 µg/mL (≈ 5.67 µM), 2.6 µg/mL (≈ 3.21 µM) and 6.1 µg/mL (≈ 7.52 µM), respectively. Moreover, the viability at 1.56 µg/mL in the test on HepG2 [2] was 72.1%; in test [9] it was 53.4%; with MCF7 [16], 76.2%. For the same compound, the viability at 6.25 µg/mL with HepG2 [3] worked out at 45.1%; in test [11], 38.1%; in the test with MCF7 [18] it was 48.8%. In addition, the viability at 3.125 µg/mL was 55% with HepG2 [4], 47.5% in test [10] and 60.4% with MCF7 [17]. Also, the viability at 25 µg/mL in the test with HepG2 [5] was found to be 16.1%; in [13], 21.7%; in the test with MCF7 [20] it was 15.2%. Moreover, the viability at 12.5 µg/mL worked out at 24.2% in the test with HepG2 [6], 28.2% in test [12] and 29.6% with MCF7 [19]. Besides, the viability at 50 µg/mL turned out to be 14.4% in the test with HepG2 [8], 16.3% in test [14] and 7.82% with MCF7 [21].
`CCOC(=O)C1=C(N)Oc2c(ccc3ccc(/C=C/c4ccc(Cl)cc4)nc23)C1c1ccc(Br)cc1` (stereo not given): the IC50 with HepG2 [1] came out at 28.6 µg/mL (≈ 50.9 µM); in test [7], 20.4 µg/mL (≈ 36.3 µM); with MCF7 [15] it was 10.3 µg/mL (≈ 18.3 µM). Further, the viability at 1.56 µg/mL in the test on HepG2 [2] worked out at 89.4%; in [9] it was 82.9%; with MCF7 [16] it was 80.9%. For the same compound, the viability at 6.25 µg/mL was 69.7% with HepG2 [3], 70.4% in test [11] and 63.5% in the test with MCF7 [18]. Further, the viability at 3.125 µg/mL was determined as 76.3% in the test with HepG2 [4], 74.3% in test [10] and 76% in the test on MCF7 [17]. In addition, the viability at 25 µg/mL was 53.4% in the test with HepG2 [5], 45.8% in test [13] and 37.9% in the test with MCF7 [20]. Moreover, the viability at 12.5 µg/mL in the test on HepG2 [6] is 61.9%; in test [12], 61.3%; in the test with MCF7 [19], 45.6%. Besides, the viability at 50 µg/mL is 39.8% with HepG2 [8], 30.7% in test [14] and 29.7% in the test on MCF7 [21].
With `N#CC1=C(N)Oc2c(ccc3ccc(/C=C/c4ccc(F)cc4)nc23)C1c1ccc(Br)cc1` (stereo not given), the IC50 is over 50 µg/mL with HepG2 [1], over 50 µg/mL in test [7] and 42.5 µg/mL (≈ 85.3 µM) in the test on MCF7 [15]. In addition, the viability at 1.56 µg/mL (in the test on HepG2 [2]; in test [9]; with MCF7 [16]) was 100% throughout. Also, the viability at 6.25 µg/mL in the test with HepG2 [3] came out at 97.2%; in test [11], 94.8%; with MCF7 [18] it was 91.8%. Also, the viability at 3.125 µg/mL worked out at 98.9% in the test on HepG2 [4], 98.6% in test [10] and 96.9% in the test with MCF7 [17]. Besides, the viability at 25 µg/mL turned out to be 74.8% in the test with HepG2 [5], 83.4% in [13] and 67.8% in the test with MCF7 [20]. The viability at 12.5 µg/mL stood at 83.4% in the test on HepG2 [6], 91.1% in test [12] and 80.2% with MCF7 [19]. For the same compound, the viability at 50 µg/mL in the test with HepG2 [8] turned out to be 63.4%; in test [14], 57.6%; in the test on MCF7 [21] it was 39.5%.
For `N#CC1=C(N)Oc2c(ccc3ccc(/C=C/c4ccc(Cl)cc4)nc23)C1c1ccc(Cl)cc1` (stereo not given), the values for the IC50 (in the test with HepG2 [1]; in [7]; in the test on MCF7 [15]) were 48.2 µg/mL (≈ 102 µM), 4.8 µg/mL (≈ 10.2 µM) and 5.6 µg/mL (≈ 11.9 µM), respectively. Further, the viability at 1.56 µg/mL is 95.4% in the test on HepG2 [2], 69.1% in test [9] and 86.6% with MCF7 [16]. In addition, the figures for the viability at 6.25 µg/mL (in the test with HepG2 [3]; in [11]; in the test with MCF7 [18]) were 79.2%, 42.6% and 45.4%, respectively. Further, the viability at 3.125 µg/mL stood at 85.8% in the test with HepG2 [4], 59% in test [10] and 61.9% with MCF7 [17]. The values for the viability at 25 µg/mL (in the test with HepG2 [5]; in test [13]; with MCF7 [20]) were 68.2%, 29% and 33.8%, respectively. In addition, the results for the viability at 12.5 µg/mL (in the test with HepG2 [6]; in [12]; in the test on MCF7 [19]) were 74%, 33.8% and 39.7%, respectively. Further, the viability at 50 µg/mL in the test with HepG2 [8] is 48.4%; in [14], 24.7%; with MCF7 [21] it was 29.6%.
`N#CC1=C(N)Oc2c(ccc3ccc(/C=C/c4ccc(Cl)cc4)nc23)C1c1ccc(Br)cc1` (stereo not given): the IC50 came to 23.2 µg/mL (≈ 45.1 µM) with HepG2 [1], 11.9 µg/mL (≈ 23.1 µM) in test [7] and 12.5 µg/mL (≈ 24.3 µM) in the test with MCF7 [15]. In addition, the values for the viability at 1.56 µg/mL (in the test on HepG2 [2]; in test [9]; with MCF7 [16]) were 94.6%, 80.4% and 98.5%, respectively. For the same compound, the viability at 6.25 µg/mL in the test with HepG2 [3] came out at 77.2%; in [11], 69.8%; in the test on MCF7 [18], 61.8%. Besides, the viability at 3.125 µg/mL is 87.9% with HepG2 [4], 72.5% in test [10] and 83.1% in the test on MCF7 [17]. The viability at 25 µg/mL in the test with HepG2 [5] turned out to be 44.9%; in [13] it was 34.2%; in the test on MCF7 [20], 39.9%. The viability at 12.5 µg/mL with HepG2 [6] turned out to be 69.6%; in [12], 47.8%; in the test on MCF7 [19], 50.3%. The viability at 50 µg/mL in the test on HepG2 [8] was found to be 33.8%; in test [14], 27.4%; in the test with MCF7 [21], 32.4%.
